The results in this text go back to patent US20070078085A1, “Methods and compositions for the utilization and targeting of osteomimicry” (priority 2004, published 2007).

The subject of the experiment is CRE-nuclear protein (CREB) complexes. Put plainly: Electrophoretic mobility shift assay (EMSA) with 32P-labeled CRE probe and nuclear extracts of treated cells. The note with it: nuclear extracts of C4-2B cells; H-89 10^−6 M. The class given is cell-based, human. As to the method: Electrophoretic Mobility Shift Assay (EMSA). A LNCaP-lineaged metastatic human prostate cancer cell line, C4-2B, and the human osteosarcoma cell line MG63 were plated in 15-cm diameter tissue culture dishes in T-medium (with 5% serum) until 80% confluence. Cells were then switched to 1-day complete serum-free condition and then treated with or without ARCaP CM (15 μg/ml) or FSK (10^−5 M) for an additional 16 h. Nuclear extracts were prepared from C4-2B and MG63 for EMSA as described by Ausubel et al (37). Briefly, cells were washed with cold PBS twice, harvested and homogenized in hypotonic buffer (10 mM HEPES, pH 7.9, 1.5 mM MgCl2, 10 mM KCl, 0.5 mM DTT and 0.2 mM PMSF). After centrifugation, the nuclear pellets were stirred and incubated for 30 min in high-salt buffer (20 mM HEPES, pH 7.9, 25% glycerol, 1.5 mM MgCl2, 1.2 M KCl, 0.2 mM EDTA, 0.5 mM DTT and 0.2 mM PMSF) on ice. The nuclear pellets were centrifuged, and the nuclear extract supernatants were dialyzed twice against dialysis buffer (20 mM HEPES, pH 7.9, 20% glycerol, 100 mM KCl, 0.2 mM EDTA, 0.5 mM DTT and 0.2 mM PMSF) overnight. The concentration of nuclear proteins was determined by the Bradford method using Coomassie plus protein reagent (Pierce). Synthetic oligonucleotides were purified by PAGE. Appropriate pairs were annealed by heating up to 95° C. for 10 min and naturally cooled down to room temperature. […]

Take `O=S(=O)(NCCNCC=Cc1ccc(Br)cc1)c1cccc2cnccc12` [H-89, N-[2-(p-bromocinnamylamino)ethyl]-5-isoquinolinesulfonamide]: the “ARCaP CM- and FSK-induced CRE binding to nuclear proteins” value was “abolish”.
